These results are taken from ChEMBL document CHEMBL1201862, “PubChem BioAssay data set” (2004).

Some test systems named below: CCRF-CEM; HL-60; 786-0; Hs-578T; U-251; SK-MEL-28; RPMI-8226; SF-295; MDA-MB-231; A549; SNB-19; DU-145; BT-549; A498; NCI-H23; MDA-N; SR; NCI-H460; SF-268; SK-MEL-2.
Assay in all cases: inhibition of tumour cell growth, NCI panel, 48 h

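Compound exposure: 48 hours, 5 concentrations, 96-well plates. The concentration for 50% growth inhibition is given as GI50.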 The source made the active and inactive calls. No stated cut-off is given here; in the data, active = GI50 up to about 1.1 µM and inactive = higher.

As to `C=CCc1c(O)c2ccccc2[nH]c1=O`, the GI50 in the assay with CCRF-CEM, with HL-60, in the assay with 786-0, with Hs-578T, in the assay on U-251 and in the assay on SK-MEL-28 was > 100 µM (inactive) throughout. In addition, the GI50 in the assay with RPMI-8226, in the assay with SF-295, with MDA-MB-231, in the assay with A549, with SNB-19 and in the assay on DU-145 was > 100 µM (inactive) in each case. Also, the GI50 in the assay with BT-549, with A498, with NCI-H23, in the assay on MDA-N, in the assay with SR and in the assay with NCI-H460 was > 100 µM (inactive) each time.

Regarding `O=C1/C(=C\c2cccc(Oc3ccccc3)c2)SC(c2ccccc2)N1c1ccc(Cl)cc1` (centres undefined), the GI50 is 5.89 µM (inactive) with CCRF-CEM; 10.1 µM (inactive) in the assay with HL-60; 52.4 µM (inactive) with 786-0; 18.2 µM (inactive) with SF-268; > 47.5 µM (inactive) in the assay on SK-MEL-2; > 67.9 µM (inactive) with Hs-578T. For the same compound, the GI50 was 50.5 µM (inactive) in the assay on U-251; 64.9 µM (inactive) with SK-MEL-28; 5.78 µM (inactive) with RPMI-8226; 7.11 µM (inactive) in the assay on SF-295; > 64.6 µM (inactive) with MDA-MB-231; > 40.6 µM (inactive) with A549. In addition, the GI50 in the assay on SNB-19 was 59.4 µM (inactive); with DU-145, 65.8 µM (inactive); with BT-549 it was 28.2 µM (inactive); in the assay with A498, > 95.9 µM (inactive); in the assay with NCI-H23 it was 15.8 µM (inactive); in the assay on MDA-N, 4.79 µM (inactive). The GI50 is 3.91 µM (inactive) in the assay on SR and 24.5 µM (inactive) in the assay with NCI-H460.

Turning to `CC1(C)N=C(N)N=C(N)N1c1ccc(CCCCc2ccc(Cl)cc2Cl)cc1`, the GI50 in the assay on CCRF-CEM is 0.736 µM (active); with HL-60, 0.461 µM (active); with 786-0, 0.5 µM (active); in the assay with SF-268, 0.382 µM (active); in the assay with SK-MEL-2, 0.887 µM (active); in the assay on Hs-578T it was 4.67 µM (inactive). The GI50 is 0.245 µM (active) with U-251; 2.88 µM (inactive) in the assay with SK-MEL-28; 1.17 µM (inactive) in the assay on RPMI-8226; 0.893 µM (active) in the assay on SF-295; 2.07 µM (inactive) with MDA-MB-231; 0.335 µM (active) with A549. In addition, the GI50 in the assay with SNB-19 is 0.527 µM (active); with DU-145, 1.92 µM (inactive); in the assay on BT-549 it was 1.85 µM (inactive); in the assay on A498 it was 12.8 µM (inactive); with NCI-H23, 0.339 µM (active); in the assay on MDA-N, 0.982 µM (active). In addition, the GI50 in the assay with SR is 0.735 µM (active); with NCI-H460 it was 0.0165 µM (active).

With `COc1ccc(C[N+](C)(C)N)cc1OC`, the GI50 with CCRF-CEM is > 10 µM (inactive); with HL-60 it was > 10 µM (inactive); in the assay with 786-0, > 10 µM (inactive); with SF-268, > 10 µM (inactive); in the assay on SK-MEL-2, > 100 µM (inactive); in the assay on Hs-578T it was > 10 µM (inactive). Also, the GI50 with U-251, in the assay with SK-MEL-28, in the assay with RPMI-8226, in the assay with SF-295, with MDA-MB-231 and in the assay on A549 was > 10 µM (inactive) each time. Besides, the GI50 in the assay on SNB-19 is > 10 µM (inactive); in the assay with DU-145, > 10 µM (inactive); in the assay with BT-549, > 10 µM (inactive); with A498, > 100 µM (inactive); in the assay with NCI-H23, > 10 µM (inactive); in the assay with MDA-N, > 10 µM (inactive). The results for the GI50 with SR and in the assay with NCI-H460 were > 10 µM (inactive) and > 100 µM (inactive), respectively.

In the case of `CC/C(=N/O)c1ccc(Br)s1`, the GI50 in the assay with CCRF-CEM was 41.1 µM (inactive); in the assay on HL-60, 28.6 µM (inactive); in the assay on 786-0 it was > 100 µM (inactive); in the assay with SF-268 it was > 100 µM (inactive); in the assay on SK-MEL-2, > 100 µM (inactive); in the assay with Hs-578T, 95.1 µM (inactive). The GI50 is > 100 µM (inactive) in the assay with U-251; > 100 µM (inactive) with SK-MEL-28; > 100 µM (inactive) in the assay on SF-295; > 100 µM (inactive) in the assay on MDA-MB-231; > 100 µM (inactive) in the assay with A549; 66.1 µM (inactive) in the assay on SNB-19. The GI50 with DU-145 is > 100 µM (inactive); in the assay on BT-549, > 100 µM (inactive); in the assay on A498, > 100 µM (inactive); with NCI-H23, > 100 µM (inactive); with MDA-N it was > 100 µM (inactive); in the assay with SR, 40.3 µM (inactive). The GI50 with NCI-H460 was > 100 µM (inactive).

Take `Fc1cccc(F)c1C1SCC2=Nc3ccccc3CN21` (centres undefined): the GI50 in the assay on CCRF-CEM was > 100 µM (inactive); in the assay with HL-60, 44.2 µM (inactive); with 786-0, 32.4 µM (inactive); in the assay on SF-268, > 10 µM (inactive); in the assay on Hs-578T, 25.4 µM (inactive); in the assay with U-251, > 100 µM (inactive). The GI50 in the assay with SK-MEL-28 was > 100 µM (inactive); in the assay with RPMI-8226, 56.1 µM (inactive); in the assay on SF-295, 38.1 µM (inactive); in the assay on MDA-MB-231 it was > 100 µM (inactive); with A549 it was 63 µM (inactive); with SNB-19, 44.1 µM (inactive). Also, the GI50 with DU-145 was 60 µM (inactive); in the assay on BT-549, 98.6 µM (inactive); in the assay on A498, > 100 µM (inactive); in the assay on NCI-H23 it was 39.8 µM (inactive); in the assay with MDA-N it was > 100 µM (inactive); with SR, 37.8 µM (inactive). The GI50 in the assay with NCI-H460 is 71 µM (inactive).

As to `Cn1c(=O)n2c(=O)n(C)c(=O)n2c1=O`, the GI50 in the assay with CCRF-CEM, in the assay with HL-60, with 786-0, in the assay on SF-268, in the assay with SK-MEL-2 and with Hs-578T was > 100 µM (inactive) throughout. Also, the GI50 in the assay on U-251, in the assay with SK-MEL-28, with RPMI-8226, in the assay with MDA-MB-231, in the assay on A549 and in the assay on SNB-19 was > 100 µM (inactive) throughout. In addition, the GI50 in the assay with DU-145, in the assay with BT-549, in the assay on A498, in the assay with NCI-H23, with MDA-N and in the assay with SR was > 100 µM (inactive) throughout. Moreover, the GI50 in the assay on NCI-H460 was > 100 µM (inactive).

For the compound `NC(=O)SCC(=O)Nc1ccc2cccc3c2c1CC3`, the GI50 in the assay on CCRF-CEM is 8.02 µM (inactive); with HL-60 it was 3.9 µM (inactive); in the assay on 786-0 it was 18.9 µM (inactive); in the assay with SF-268, 15.3 µM (inactive); with SK-MEL-2, 17.1 µM (inactive); with Hs-578T, 47.6 µM (inactive). Also, the GI50 is 5.33 µM (inactive) in the assay on U-251; > 10 µM (inactive) in the assay with SK-MEL-28; 20.9 µM (inactive) with RPMI-8226; 21.1 µM (inactive) in the assay on SF-295; 6.76 µM (inactive) in the assay on MDA-MB-231; > 100 µM (inactive) with A549. For the same compound, the GI50 with SNB-19 is 99.3 µM (inactive); in the assay on DU-145 it was > 100 µM (inactive); in the assay with BT-549, 16.2 µM (inactive); with A498 it was 91 µM (inactive); in the assay on NCI-H23, 23.7 µM (inactive); in the assay on MDA-N, 21.8 µM (inactive). In the assay on SR, the GI50 is 8.71 µM (inactive).

Regarding `C[C@@H](NC(=O)Nc1cccc(C(=O)Nc2cc(C(C)(C)C)ccc2C(=O)O)n1)c1ccccc1`, the GI50 was 45.3 µM (inactive) in the assay with HL-60; 37.5 µM (inactive) with 786-0; 46.8 µM (inactive) in the assay with SF-268; 18.1 µM (inactive) in the assay on SK-MEL-2; 40.4 µM (inactive) in the assay with Hs-578T; 16.1 µM (inactive) in the assay with U-251. The GI50 was 41.4 µM (inactive) with SK-MEL-28; 41.8 µM (inactive) in the assay with RPMI-8226; 25.2 µM (inactive) in the assay with SF-295; 23.4 µM (inactive) in the assay with MDA-MB-231; 44.3 µM (inactive) in the assay with A549; 47 µM (inactive) in the assay with SNB-19. The GI50 with DU-145 is 40.2 µM (inactive); in the assay on BT-549, 37 µM (inactive); in the assay with A498, 64.1 µM (inactive); with NCI-H23 it was 41.7 µM (inactive); in the assay on MDA-N, 38.4 µM (inactive); in the assay on SR, 28.4 µM (inactive). Further, the GI50 in the assay on NCI-H460 was 52.1 µM (inactive).

Consider `COc1ccc(CC/N=C2\OCc3ccccc32)cc1OC`, for which the GI50 with CCRF-CEM is 29.1 µM (inactive); in the assay with HL-60, 5.42 µM (inactive); in the assay with 786-0 it was 45.3 µM (inactive); in the assay with SK-MEL-2, 51.2 µM (inactive); in the assay with Hs-578T it was 67 µM (inactive); in the assay on U-251 it was > 100 µM (inactive). For the same compound, the GI50 was > 100 µM (inactive) in the assay on SK-MEL-28; 33.3 µM (inactive) in the assay on SF-295; 61.8 µM (inactive) with MDA-MB-231; 46.3 µM (inactive) in the assay on A549; > 100 µM (inactive) with SNB-19; 32.4 µM (inactive) in the assay on DU-145. Besides, the GI50 is > 100 µM (inactive) in the assay on BT-549; > 100 µM (inactive) in the assay with A498; 32.7 µM (inactive) with NCI-H23; 38.8 µM (inactive) in the assay on MDA-N; 11.5 µM (inactive) with SR; 45.5 µM (inactive) in the assay on NCI-H460.

As to `CC(=N)OC1CC2CCC1(C)C2(C)C` (centres undefined), the GI50 in the assay with CCRF-CEM, with HL-60, in the assay with 786-0, with SF-268, in the assay on Hs-578T and with U-251 was > 100 µM (inactive) in each case. For the same compound, the GI50 in the assay with SK-MEL-28, with RPMI-8226, with SF-295, with MDA-MB-231, in the assay on A549 and with DU-145 was > 100 µM (inactive) in each case. Also, the GI50 in the assay with BT-549, in the assay with A498, with NCI-H23, in the assay with MDA-N, in the assay with SR and in the assay on NCI-H460 was > 100 µM (inactive) throughout.
